Assay: Stability of pure lycopene isomers in n-hexane during storage at room temperature
Format: physicochemical
Settings: storage in n-hexane at room temperature in the absence of light
Description: Pure 5-Z, 9-Z, 13-Z and all-E lycopene were isolated from isomerised tomato oleoresin (submitted to 1 hour heating), by collecting the fractions containing the corresponding peaks after HPLC separation (see below the experimental conditions). Peaks were collected during two consecutive HPLC runs and the corresponding fractions were pooled.
Lycopene isomer profiles were determined by normal phase HPLC according to the method described by Schierle et al. (Schierle, J., Bretzel, W., Buhler, I., Faccin, N., Hess, D., Steiner, K., Schuep, W. (1997). Food. Chem. 59: 459). Samples of isomerized oleoresins were dissolved in n-hexane containing 50 ppm BHT and spun at maximum speed in an Eppendorf Lab centrifuge. The resulting supernatants were immediately analyzed by HPLC. The HPLC system used was a 1100 series Hewlett-Packard model equipped with an ultraviolet-visible photodiode array detector. Data were simultaneously acquired at 470 nm, 464 nm, 346 nm and 294 nm. […]
Amounts of lycopene isomers were calculated based on surface areas of the HPLC peaks using the same extinction coefficient as the all-E lycopene. […]
Stability of lycopene isomers was investigated both in n-hexane and in a tomato oleoresin isomerized by 4 hour heating in ethyl acetate. […] Total lycopene concentration and lycopene isomer profiles were measured at various time intervals during the storage. […]

relative stability of the isomer: less stable isomer
Compound: CC(C)=CCC/C(C)=C/C=C/C(C)=C/C=C/C(C)=C\C=C\C=C(C)\C=C\C=C(C)\C=C\C=C(/C)CCC=C(C)C [13-Z lycopene]
